Laboratory results: publication PMC2987774, “Creation of a novel peptide with enhanced nuclear localization in prostate and pancreatic cancer cell lines” (BMC Biotechnology, 2010)
Values joined by “and” are separate entries in the source; they are usually repeats but may differ in a detail not shown here. Identical values can stand only once. Like-named read-outs stand apart in the source and are kept apart here. Marks after values point to notes of the source that are not given here.

Legend:
[1] = tested on: DU-145 and LNCaP cells; test: Nuclear colocalization by imaging flow cytometry (DRAQ5), statement pooled over two lines; assay type: cell-based; conditions: 250 nM, 4 hours; fixed cells, IDEAS software
Experimental: Figure 4 Imaging studies. Figure 4A: DU-145 and LNCaP cells were incubated with 250 nM Glu-Ala-FITC or Glu-Oct6-FITC for 4 hours, counterstained with […] DRAQ 5, then fixed in paraformaldehyde and analyzed by imaging flow cytometry on an Amnis Imaging Cytometer. IDEAS software (Amnis) was used to generate and colorize the images. Across each row of images, one is viewing the same cell under different fluorescence excitations. […] Figure 4B: Live cell imaging of Glu-Oct6-FITC by DU-145 cells. 500 nM Glu-Oct6-FITC was incubated with DU-145 cells overnight (necessary for imaging purposes). Cells were washed with phenol red-free buffer, counter-stained with DRAQ5 at […], and then examined under a Zeiss Axiovert 200 inverted phase contrast microscope with epifluorescence. The merged image confirms the presence of Glu-Oct6-FITC in nuclei. Merged images with and without Nomarski interference are shown. Figure 4C and D: DU-145 cells incubated with Glu-FITC and Oct6-FITC, as described for Figure 3B. Note the absence of FITC fluorescence in nuclei.
(§1) Concentrations ranging from 0 to 1000 nM were assayed. Fluorescence was normalized using calibration beads (Becton-Dickinson; BD). […] Four to five thousand events were collected for analysis.

[2] = tested on: DU-145 cells; conditions: for % Inhibition of uptake: 300 nM, 4 hr; for uptake of Glu-Oct6-FITC on coincubation with carboxydansyl peptide: 300 nM dansyl peptide + 300 nM Glu-Oct6-FITC, 1 hr, BD LSR II (Figure 2D)
Experimental: Peptides were added to subconfluent cultures of cells at times, temperatures, and concentrations indicated in experiments. Concentrations ranging from 0 to 1000 nM were assayed. Fluorescence was normalized using calibration beads (Becton-Dickinson; BD). Cells were analyzed in the presence of 5 mM 7-AAD (eBioscience, San Digeo CA) to gate on live events. Fluorescence was quantified, after cells were harvested, using a BD FACScan flow cytometer. At least 10,000 events were acquired using CellQuest Pro software and an Apple Macintosh G4 dual coprocessor computer running OS X 10.3.9. Fluorescence detectors on the instrument were standardized prior to each acquisition run, so that fluorescence intensities from different days could be compared. Because the FACScan employs logarithmic amplifiers on the fluorescence detectors, the more accurate parameter with which to compare fluorescence intensities for different samples is the geometric mean fluorescence intensity (geometric MFI). For the studies examining uptake of carboxyfluorescein peptides plus carboxydansyl peptides, fluorescence was quantified on a BD LSR II flow cytometer.

[3] = tested on: DU-145 and LNCaP cells; test: Live cell imaging, inverted epifluorescence microscopy with DRAQ5; assay type: cell-based; conditions: 500 nM, 24 hrs incubation
Experimental: A Zeiss Axiovert 200 inverted phase-contrast microscope outfitted with epifluorescence was used for live imaging studies. Subconfluent cultures of cells in 12-well plates were incubated with 500 nM peptides as indicated. DRAQ5 (Axxora; […] final concentration) was added for the last hour of incubation, then the cells were washed twice with warm phenol red-free buffer. Cells were examined in phenol red-free buffer plus 10% serum. Images were acquired and analyzed using Zeiss Axiovision software.

[4] = tested on: PANC-1 cells; test: Nuclear colocalization by imaging flow cytometry (DRAQ5, Amnis ImageStream); assay type: cell-based; conditions: 1000 nM, 18 hr; 4 to 5 thousand events
Experimental: as §1

[5] = tested on: DU-145 cells; test: as above; assay type: cell-based; conditions: 1000 nM, 18 hr; 4 to 5 thousand events
Experimental: as §1

[6] = tested on: PANC-1 cells; test: Apoptosis, FITC-annexin V plus PI flow cytometry; assay type: cell-based; conditions: 48 hr, mean of 3 experiments
Experimental: (§2) DU-145 and PANC-1 cells were incubated with PNAs Glu-Oct6-13410a or 13410a (no CPP attached) at 0, 300, 600, or 1000 nM for 48 hr. Cells were harvested, then stained with FITC-annexin V (Abcam; Cambridge, MA) and counterstained with propidium iodide (Sigma, St.Louis, MO). Cells were analyzed on a BD FACScan for fluorescence in the FL1 and FL3 channels; CellQuest Pro software was used to quantify fluorescence and determine the extent of apoptosis.

[7] = tested on: DU-145 cells; test: Apoptosis, FITC-annexin V plus PI flow cytometry; assay type: cell-based; conditions: 48 hr, mean of 3 experiments
Experimental: as §2

## EEEAA-FITC [Glu-Ala-FITC, carboxyfluorescein-labeled glutamate-rich peptide EEEAA-FITC]
[1]
  nuclei positive for DRAQ5 and FITC colocalization: ~ 10%
[2]; 0% NaN3 (reference)
  % Inhibition of uptake: 0%
[2]; 0.1% NaN3
  % Inhibition of uptake: 0%
[3]
  accumulation in the nuclei: not

## EEEAAGRKRKKRT-FITC [Glu-Oct6-FITC, novel CPP, EEEAA on the N-terminus of the Oct6 NLS, FITC-labeled]
[1]
  distribution in the cytoplasm: approximately 50%
  distribution in the nucleus: approximately 50%
[2]; 0% NaN3 (reference)
  % Inhibition of uptake: 0%
[2]; 0.1% NaN3
  % Inhibition of uptake: 0%
[2]; 1.0% NaN3
  % Inhibition of uptake: 24.8%
[3]
  accumulation in the nuclei: accumulated in the nuclei

## EEEAAGRKRKKRT-TATGATCTCCTCCGT-K-FITC [Glu-Oct6-PNA-FITC, Glu-Oct6 at the N terminus, inert PNA …-lysyl-FITC at the C terminus]
[4]
  mean % cyto. FITC: 21.8%
  mean cyto. FITC intensity: 68,465
  mean nuclear FITC intensity: 322,794
[5]
  mean % cyto. FITC: 22.48%
  mean % nuclear FITC: 68.04%
  mean cyto. FITC intensity: 76,943
  mean nuclear FITC intensity: 274,597

## EEEAAGRKRKKRT-TCCCGTAAATCCCTA [Glu-Oct6-13410a]
[6]; 300 nM PNA
  % apop.: 17.4%
[6]; 600 nM PNA
  % apop.: 69% and 69.6* %
[6]; 1000 nM PNA
  % apop.: 84.6* %
[7]; 300 nM PNA
  % apop.: 8.7%
[7]; 600 nM PNA
  % apop.: 48% and 48.7* %
[7]; 1000 nM PNA
  % apop.: 82.5* %

## EEEAAKKK-FITC [Glu-Lys-FITC]
[2]; 0% NaN3 (reference)
  % Inhibition of uptake: 0%
[2]; 0.1% NaN3
  % Inhibition of uptake: 0%

## FFFAAGRKRKKRT-dansyl [Phe-Oct6-Dansyl]
[2]
  uptake of Glu-Oct6-FITC on coincubation with carboxydansyl peptide: nearly unaltered uptake

## GRKRKKRT-FITC [Oct6-FITC, Oct6 transcription factor NLS peptide alone, FITC-labeled, reference compound]
[2]; 0% NaN3 (reference)
  % Inhibition of uptake: 0%
[2]; 0.1% NaN3
  % Inhibition of uptake: 29.8%
[2]; 1.0% NaN3
  % Inhibition of uptake: 56.7%
[3]
  accumulation in the nuclei: not

## NNNAAGRKRKKRT-dansyl [Asn-Oct6-Dansyl]
[2]
  uptake of Glu-Oct6-FITC on coincubation with carboxydansyl peptide: nearly unaltered uptake
